The values that follow come from patent publication US11708283B2, “Metal-chelating compositions and their use in methods of removing or inhibiting barium scale” (CORNELL UNIVERSITY, priority 2018, dated 2023).

The conditions of data set [1]: literature values (footnotes b, c); cited from earlier work.
The nature of data set [2]: Dissolution of barite ore in columns (ligand efficiency, GFAAS). The note with it: ~48 mM ligand, soak 1 hour.
Data set [3] is described as follows: Recovery and reuse of macropa for BaSO4 dissolution. On the procedure: The capacity for recovery and reuse of macropa post-BaSO4 dissolution was assessed qualitatively. FIG. 7 schematically depicts a process for ligand recovery and reuse. A solution of macropa-dissolved BaSO4 was acidified to release the Ba^2+ from the ligand as BaSO4. After filtration of the precipitated BaSO4 and basification of the solution, the recovered ligand was successfully reused for another cycle of BaSO4 dissolution. More specifically, a sample of macropa-dissolved BaSO4 (9.66 mM macropa, 8.74 mM Ba(NO3)2, 26.04 mM Na2SO4) was acidified to pH 1 with concentrated HCl to protonate the ligand, inducing Ba^2+ decomplexation and precipitation as BaSO4. The macropa solution was isolated by filtration, basified to pH 8 with 2 M NaOH, and combined with another portion of BaSO4. Within 40 minutes, no visible precipitate remained in the vial, signaling that the recycled macropa dissolved all the BaSO4.
In other experiments, an initial solution of macropa-dissolved BaSO4 was prepared by stirring at 450 RPM a suspension containing BaSO4 (8.74 mM Ba(NO3)2; 26.04 mM Na2SO4), macropa (9.66 mM), and 2M NaOH (35 μL) in 1M NaHCO3 (326 μL). The final volume was 1035 μL and the pH was 8. […] The solution was adjusted to pH 1 (by litmus paper) by adding concentrated HCl (3 drops). The resultant suspension was stirred for 10 minutes and then filtered through a nylon syringe filter (0.22 μm). The syringe filter was rinsed with 0.1 M HCl (2×100 μL) to facilitate full recovery of the ligand. The pH of the filtrate was carefully adjusted back to pH 8 (by litmus paper) with 2 M NaOH. To this recovered solution of macropa was added another portion of BaSO4 (0.009 mmol BaNO3, 0.027 mmol Na2SO4). The suspension was stirred at 450 RPM and RT. The dissolution of BaSO4 was monitored visually until all of the BaSO4 was dissolved, marking the completion of a full cycle of ligand recovery and reuse. Another cycle was then initiated via the addition of concentrated HCl to the solution. A total of five cycles were performed and the time to full dissolution of BaSO4 was recorded. […] The precipitate may be attributed to a small amount of BaSO4 that remains undissolved as a consequence of ligand loss over time, which occurs because aliquots of the solution are removed to assess the pH during the recovery and reuse process.

Data set [4] is described as follows: Aqueous solubility of ligand (stock solution preparation). The note with it: stock solution could not be prepared. It is filed as physicochemical. On the procedure:
Stock solutions of macropa and macropaquin were prepared in H2O. […] The exact ligand concentrations were determined from the potentiometric titration curves with KOH. Protonation equilibria of macropa^2− and macropaquin^2− were determined by adding standardized KOH to a solution (20 mL) containing ligand (˜0.02 mmol), 0.1 M HCl (0.1 mmol), and 1 M KCl (1.9 mmol). The titration method employed a 0.1 mV/min drift limit with a maximum wait time of 90 sec between addition of base and measurement. At least 70 data points were collected over the pH range of 2.5-10.5 (macropa) or 2.5-11.3 (macropaquin). The protonation constants, defined in Eq. 1, were calculated from the average of at least 4 independent titrations using the appropriate software.

Structures are written as SMILES.

As to `O=C(O)CN1CCN(CC(=O)O)CCN(CC(=O)O)CCN(CC(=O)O)CC1` [DOTA, reference compound], the “log KBaL” value in data set [1] is 11.75.
As to `O=C(O)c1cccc(CN2CCOCCOCCN(Cc3cccc(C(=O)O)n3)CCOCCOCC2)n1` [macropa, 6,6-((1,4,10,13-tetraoxa-7,16-diazacyclooctadecane-7,16-diyl)bis(methylene))dipicolinic acid], the “ligand efficiency (percent of ligand saturated with Ba^2+)” value in data set [2] (pH 8, barite 3 g) is on record as 40%; in data set [2] (pH 11, barite 3 g), 40%. In data set [3] (9.66 mM macropa, 8.74 mM Ba(NO3)2, 26.04 mM Na2SO4, pH 8), the “time to complete dissolution of BaSO4 (initial solution)” value came out at 17 min. In addition, the “time until no visible BaSO4 precipitate remained with recycled ligand” value in data set [3] (first reuse, pH 8) is no more than 40 min. The “efficacy on reuse four more times” value in data set [3] (ligand recovered and reused) is on record as “negligible loss in efficacy or speed of dissolution”. Besides, the “BaSO4 dissolution during the 4th and 5th cycles” value in data set [3] (recovery and reuse cycles) is “dissolution of most of the BaSO4 was rapidly achieved within the first hour”.
For the compound `O=S(=O)(O)c1ccc(O)c2nc(CN3CCOCCOCCN(Cc4ccc5c(S(=O)(=O)O)ccc(O)c5n4)CCOCCOCC3)ccc12` [macroquin-SO3, 2,2′-((1,4,10,13-tetraoxa-7,16-diazacyclooctadecane-7,16-diyl)bis(methylene))bis(8-hydroxyquinoline-5-sulfonic acid)], the aqueous solubility result in data set [4] is recorded as “poor aqueous solubility”.
